Patent publication US20100298300A1, “TRIAZOLOPYRAZINE COMPOUNDS USEFUL FOR THE TREATMENT OF DEGENERATIVE & INFLAMMATORY DISEASES” (priority 2006, published 2010)

Legend:
[1] = tested on: MMP1 expression by activated primary synovial fibroblasts; assay: 'MMP assay': MMP1 expression by complex trigger activated synovial fibroblasts (MMP1 ELISA); type: cell-based; details: Homo sapiens, Fibroblast; Table 4; RASFs, complex trigger, 48 hrs, MMP1 ELISA
[2] = target: T1, MAPKAPK5 (Homo sapiens, UniProt Q8IW41); assay: MAPKAP-K5 assay (FlashPlate kinase assay)
T1 sequence (Q8IW41 1-471 isoform Q8IW41-2): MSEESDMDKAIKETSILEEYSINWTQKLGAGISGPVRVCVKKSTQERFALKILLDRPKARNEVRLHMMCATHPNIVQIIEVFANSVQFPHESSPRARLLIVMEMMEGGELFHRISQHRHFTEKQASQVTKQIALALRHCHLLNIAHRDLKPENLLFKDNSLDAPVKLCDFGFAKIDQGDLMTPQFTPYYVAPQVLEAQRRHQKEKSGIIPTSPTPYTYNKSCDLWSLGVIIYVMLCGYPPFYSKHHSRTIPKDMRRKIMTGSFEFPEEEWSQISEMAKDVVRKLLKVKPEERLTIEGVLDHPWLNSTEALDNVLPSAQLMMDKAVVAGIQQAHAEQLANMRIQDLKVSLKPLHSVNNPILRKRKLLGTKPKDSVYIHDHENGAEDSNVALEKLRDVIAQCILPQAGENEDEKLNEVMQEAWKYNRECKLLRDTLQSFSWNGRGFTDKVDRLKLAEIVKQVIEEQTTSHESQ
Experimental: MAPKAP-K5 reactions are performed in FlashPlate format using 0.1 or 0.2 μCi 33P-ATP; 0.6 μM ATP; 1 mU MAPKAP-K5; 3 μM MAPKAP-K5 peptide substrate, incubated at room temperature for 30 minutes.
The MAPKAP-K5 kinase reaction is performed in a 384 well polypropylene plate (Matrix Technologies) and then transferred to a streptavidin-coated 384 well flashplate (Perkin-Elmer).
To wells containing 2 μL test compound or standard inhibitor, 13 μL Enzyme mix or diluent are added using a Hydra (Robbins Scientific).
Reactions are started by addition of 10 μL of [2,5×] substrate cocktail using a Multidrop (Thermo-Labsystems), to give final concentrations in the assay of:
Plates are incubated at room temperature for 30 minutes.
Reactions are terminated by the addition of 25 μL EDTA (50 mM) to each well using a Micro-fill (Biotek).
Reactions are transferred to a streptavidin-coated flashplate using a Zymark robotic system. Plates are incubated for 60 minutes at room temperature.
All wells are washed 3 times with 100 μl phosphate buffered saline using a Tecan plate washer.
Radioactivity is determined by scintillation counting of the flashplate (empty wells) on a Packard TopCount.
Enzyme Mix: • Enzyme • 50 mM Tris Hcl (pH 7.5) • 0.1 mM EGTA • 2 mM DTT • 1 mg/mL BSA
Reaction Buffer: • 50 mM Tris Hcl (pH 7.5) • 0.1 mM EGTA • 10 mM Magnesium acetate • 2 mM DTT

Row | SMILES | EC50 [1] [µM] | IC50 [2] [µM]
1 | CN(Cc1ccccc1)C(=O)c1cccc(Nc2ncc(-c3cn[nH]c3)n3ncnc23)c1 [Compound 134, N-Benzyl-N-methyl 3-[5-(1H-pyrazol-4-yl)-[1,2,4]triazolo[1,5-a]pyrazin-8-ylamino]benzamide] | 0.501 to 1 | > 1
2 | CNC(=O)C1CCN(C(=O)c2ccc(Nc3ncc(-c4cn[nH]c4)n4ncnc34)cc2)CC1 [Compound 136] | > 1 | 0.501 to 1
3 | O=C(NCCc1ccncc1)c1ccc(Nc2ncc(-c3cn[nH]c3)n3ncnc23)cc1 [Compound 137] | > 1 | 0.501 to 1
4 | CCN1CCN(C(=O)c2ccc(Nc3ncc(-c4cn[nH]c4)n4ncnc34)cc2)CC1 [Compound 138] | > 1 | 0.501 to 1
5 | CCN1CCCC1CNC(=O)c1ccc(Nc2ncc(-c3cn[nH]c3)n3ncnc23)cc1 (centres unmarked) [Compound 139] | > 1 | 0.501 to 1
6 | O=C(c1ccc(Nc2ncc(-c3cn[nH]c3)n3ncnc23)cc1)N1CC=CC1 [Compound 140] | > 1 | 0.501 to 1
7 | CCOCCN1CCN(C(=O)c2ccc(Nc3ncc(-c4cn[nH]c4)n4ncnc34)cc2)CC1 [Compound 141] | > 1 | 0.501 to 1
8 | O=C(NCC1CC1)c1ccc(Nc2ncc(-c3cn[nH]c3)n3ncnc23)cc1 [Compound 142] | > 1 | > 1
9 | CC(=O)N(C)C1CCN(C(=O)c2ccc(Nc3ncc(-c4cn[nH]c4)n4ncnc34)cc2)C1 (centres unmarked) [Compound 143] | > 1 | 0.501 to 1
10 | O=C(c1ccc(Nc2ncc(-c3cn[nH]c3)n3ncnc23)cc1)N1CCN(c2ccccc2)CC1 [Compound 145] | > 1 | 0.501 to 1
11 | COC[C@@H]1CCCN1C(=O)c1ccc(Nc2ncc(-c3cn[nH]c3)n3ncnc23)cc1 [Compound 146] | > 1 | > 1
12 | O=C(c1ccc(Nc2ncc(-c3cn[nH]c3)n3ncnc23)cc1)N1CCN(c2ccccn2)CC1 [Compound 148] | > 1 | 0.501 to 1
13 | CCC(COC)NC(=O)c1ccc(Nc2ncc(-c3cn[nH]c3)n3ncnc23)cc1 (centres unmarked) [Compound 149] | > 1 | > 1
14 | COCCN1CCN(C(=O)c2ccc(Nc3ncc(-c4cn[nH]c4)n4ncnc34)cc2)CC1 [Compound 150] | > 1 | 0.501 to 1
15 | O=C(NCCc1ccc(O)cc1)c1ccc(Nc2ncc(-c3cn[nH]c3)n3ncnc23)cc1 [Compound 151] | > 1 | > 1
16 | CCC(C)N1CCN(C(=O)c2ccc(Nc3ncc(-c4cn[nH]c4)n4ncnc34)cc2)CC1 (centres unmarked) [Compound 152] | > 1 | 0.501 to 1
17 | CN1CCN(c2ccc(NC(=O)c3ccc(Nc4ncc(-c5cn[nH]c5)n5ncnc45)cc3)cc2)CC1 [Compound 153] | > 1 | 0.501 to 1
18 | CCOC(=O)CN(Cc1ccccc1)C(=O)c1ccc(Nc2ncc(-c3cn[nH]c3)n3ncnc23)cc1 [Compound 154] | > 1 | > 1
19 | CC(C)NC(=O)CN1CCN(C(=O)c2ccc(Nc3ncc(-c4cn[nH]c4)n4ncnc34)cc2)CC1 [Compound 155] | > 1 | 0.501 to 1
20 | COCCN(C)C(=O)c1ccc(Nc2ncc(-c3cn[nH]c3)n3ncnc23)cc1 [Compound 156] | > 1 | > 1
21 | CCN(CCOC)C(=O)c1ccc(Nc2ncc(-c3cn[nH]c3)n3ncnc23)cc1 [Compound 157] | > 1 | > 1
22 | O=C(NCC1CCCO1)c1ccc(Nc2ncc(-c3cn[nH]c3)n3ncnc23)cc1 (centres unmarked) [Compound 158] | > 1 | 0.501 to 1
23 | O=C(c1ccc(Nc2ncc(-c3cn[nH]c3)n3ncnc23)cc1)N1CC=CCC1 [Compound 159] | > 1 | 0.501 to 1
24 | CSCCNC(=O)c1ccc(Nc2ncc(-c3cn[nH]c3)n3ncnc23)cc1 [Compound 160] | > 1 | 0.501 to 1
25 | CC1(C)OCC(CNC(=O)c2ccc(Nc3ncc(-c4cn[nH]c4)n4ncnc34)cc2)O1 (centres unmarked) [Compound 161] | > 1 | 0.501 to 1
